# Like-named read-outs stand apart in the source and are kept apart here. Marks after values point to notes of the source that are not given here. Ends that are not written are not given here.
# Assays:
# hyperlipidemic rats = experiment: Serum lipid levels in hyperlipidemic rat model after oral gavage; format: in vivo, Sprague-Dawley (SD) rats; settings: after 4 weeks of oral gavage, high-fat diet rats
# Description: After 1-2 weeks of feeding the high-fat diet to the modeling group, blood was collected from the blank control group and the modeling group without fasting (from the inner canthus or tail). Serum was separated as soon as possible after blood collection, and serum levels of Total Cholesterol (TC), Triglycerides (TG), Low-Density Lipoprotein Cholesterol (LDL-C), and High-Density Lipoprotein Cholesterol (HDL-C) were measured. The modeling group was randomly divided into 3 groups (model control group, cholesterol-lowering peptide group, lovastatin control group). No significant differences in TC, TG, LDL-C, and HDL-C were observed among these groups.
# All rats had free access to water.
# [1] = Rat body weight during oral gavage
# Description: (§1) A hyperlipidemic animal model was established as follows: Forty healthy adult male Sprague-Dawley (SD) rats, weighing 200±20 g, were used. A blank control group of 10 rats was fed a standard diet. The remaining 30 rats constituted the modeling group and were fed a high-fat diet (commercially available, 60% fat content).
# (§2) The blank control group and the model control group were administered an equal volume of 0.9% physiological saline by oral gavage. The other two groups were administered aqueous solutions of the test samples by oral gavage.
# (§3) During the gavage period, the blank control group was fed a standard diet daily, while the other groups continued receiving the high-fat diet. All rats had free access to water. Oral gavage was performed once daily for 4 consecutive weeks, and body weights were measured regularly.
# [2] = rat, in vivo, po
# Description: as §1, §2, §3
Compound,High-Density Lipoprotein Cholesterol (HDL-C) (hyperlipidemic rats),Low-Density Lipoprotein Cholesterol (LDL-C) (hyperlipidemic rats),Total Cholesterol (TC) (hyperlipidemic rats),Triglycerides (TG) (hyperlipidemic rats),"effect on rat body weight ([1]; Day 14 and Day 28 of administration, compared among groups)","Body Weight (g) At Day 0 of Administration ([1]; high-fat diet rats, oral gavage once daily, Day 0) [g]","Body Weight (g) At Day 14 of Administration ([1]; high-fat diet rats, oral gavage once daily, Day 14) [g]","Body Weight (g) At Day 28 of Administration ([1]; high-fat diet rats, oral gavage once daily, Day 28) [g]",Body Weight (g) At Day 0 of Administration [2] [g],Body Weight (g) At Day 14 of Administration [2] [g],Body Weight (g) At Day 28 of Administration [2] [g]
CC[C@H](C)C(=O)O[C@H]1C[C@@H](C)C=C2C=C[C@H](C)[C@H](CC[C@@H]3C[C@@H](O)CC(=O)O3)[C@H]21 [Lovastatin],0.54**,0.32**,3.06**,0.98**,no significant effect,200.78,221.16,236.39,–,–,–
FFFPF [FFFPF],–,–,–,–,–,–,–,–,200.89,220.75,237.35

# Reference: patent US20260078145A1, “Polypeptides having cholesterol-lowering function in soybean protein hydrolysate, preparation method thereof, and uses thereof” (WUHAN ZHENFU INNOVATION BIOPHARMACEUTICAL CO., LTD, priority 2023, published 2026)
